Measured values published in PubChem BioAssay AID1919013 (Molecular Pharmacology Branch, DTP, NCI, 2023).
Blank lines part the entries; values can stand above or below the compound they belong to.

Test system: LG0703-F498-PDC complex spheroid growth
Test: Anticancer human tumor LG0703-F498-PDC patient-derived lung adenocarcinoma cell line growth inhibition [AhR]
Settings: for IC50: curve of first compound; for viability, T/C: stronger effect = lower value
In short: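 Complex tumor spheroids co-cultured with HUVEC and human MSC stroma; AhR antagonists tested in combination with standard-of-care and investigational agents. Top concentration at or near clinical Cmax (else 10 microM), half-log dilutions; growth expressed as percent test/control.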

[1] = second compound 0.1 µM, first compound 0.0316 µM
[2] = second compound 0.1 µM, first compound 0.1 µM
[3] = second compound 0.1 µM, first compound 0.316 µM
[4] = second compound 0.1 µM, first compound 1 µM
[5] = second compound 0.1 µM, first compound 3.16 µM
[6] = second compound 0.1 µM, first compound 10 µM
[7] = second compound 0.316 µM, first compound 0.0316 µM
[8] = second compound 0.316 µM, first compound 0.1 µM
[9] = second compound 0.316 µM, first compound 0.316 µM
[10] = second compound 0.316 µM, first compound 1 µM
[11] = second compound 0.316 µM, first compound 3.16 µM
[12] = second compound 0.316 µM, first compound 10 µM
[13] = second compound 1 µM, first compound 0.0316 µM
[14] = second compound 1 µM, first compound 0.1 µM
[15] = second compound 1 µM, first compound 0.316 µM
[16] = second compound 1 µM, first compound 1 µM
[17] = second compound 1 µM, first compound 3.16 µM
[18] = second compound 1 µM, first compound 10 µM
[19] = second compound 3.16 µM, first compound 0.0316 µM
[20] = second compound 3.16 µM, first compound 0.1 µM
[21] = second compound 3.16 µM, first compound 0.316 µM
[22] = second compound 3.16 µM, first compound 1 µM
[23] = second compound 3.16 µM, first compound 3.16 µM
[24] = second compound 3.16 µM, first compound 10 µM
[25] = second compound 10 µM, first compound 0.0316 µM
[26] = second compound 10 µM, first compound 0.1 µM
[27] = second compound 10 µM, first compound 0.316 µM
[28] = second compound 10 µM, first compound 1 µM
[29] = second compound 10 µM, first compound 3.16 µM
[30] = second compound 10 µM, first compound 10 µM
[31] = second compound 0.1 µM, first compound 0.00949 µM
[32] = second compound 0.1 µM, first compound 0.03 µM
[33] = second compound 0.1 µM, first compound 0.0949 µM
[34] = second compound 0.1 µM, first compound 0.3 µM
[35] = second compound 0.316 µM, first compound 0.00949 µM
[36] = second compound 0.316 µM, first compound 0.03 µM
[37] = second compound 0.316 µM, first compound 0.0949 µM
[38] = second compound 0.316 µM, first compound 0.3 µM
[39] = second compound 1 µM, first compound 0.00949 µM
[40] = second compound 1 µM, first compound 0.03 µM
[41] = second compound 1 µM, first compound 0.0949 µM
[42] = second compound 1 µM, first compound 0.3 µM
[43] = second compound 3.16 µM, first compound 0.00949 µM
[44] = second compound 3.16 µM, first compound 0.03 µM
[45] = second compound 3.16 µM, first compound 0.0949 µM
[46] = second compound 3.16 µM, first compound 0.3 µM
[47] = second compound 10 µM, first compound 0.00949 µM
[48] = second compound 10 µM, first compound 0.03 µM
[49] = second compound 10 µM, first compound 0.0949 µM
[50] = second compound 10 µM, first compound 0.3 µM
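Further: luminescence taken as a proxy for viable cell amount.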
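Wherever viability, T/C is given: percent of DMSO vehicle control where 100% means growth equal to vehicle.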

IC50 (second compound 0.1 µM): 6.26 µM | IC50 (second compound 0.316 µM): 6.52 µM | IC50 (second compound 1 µM): 5.65 µM | IC50 (second compound 3.16 µM): 5.77 µM | IC50 (second compound 10 µM): 7.19 µM
Structure (SMILES): CC1(C)CCC(CN2CCN(c3ccc(C(=O)NS(=O)(=O)c4ccc(NCC5CCOCC5)c([N+](=O)[O-])c4)c(Oc4cnc5[nH]ccc5c4)c3)CC2)=C(c2ccc(Cl)cc2)C1 + Cc1ccccc1N=Nc1ccc(NC(=O)c2ccnn2C)c(C)c1
viability, T/C [1]: 102% | viability, T/C [2]: 94.5% | viability, T/C [3]: 94.1% | viability, T/C [4]: 94.3% | viability, T/C [5]: 95.2% | viability, T/C [6]: 19.1% | viability, T/C [7]: 98.7% | viability, T/C [8]: 104% | viability, T/C [9]: 100% | viability, T/C [10]: 89.5% | viability, T/C [11]: 92.9% | viability, T/C [12]: 24.5% | viability, T/C [13]: 96.8% | viability, T/C [14]: 87% | viability, T/C [15]: 107% | viability, T/C [16]: 91.1% | viability, T/C [17]: 78.5% | viability, T/C [18]: 22.2% | viability, T/C [19]: 79% | viability, T/C [20]: 90.9% | viability, T/C [21]: 82.9% | viability, T/C [22]: 107% | viability, T/C [23]: 75.4% | viability, T/C [24]: 26.8% | viability, T/C [25]: 95% | viability, T/C [26]: 86% | viability, T/C [27]: 96.2% | viability, T/C [28]: 76.2% | viability, T/C [29]: 83.3% | viability, T/C [30]: 37.7%

IC50 (second compound 0.1 µM): > 10 µM | IC50 (second compound 0.316 µM): > 10 µM | IC50 (second compound 1 µM): > 10 µM | IC50 (second compound 3.16 µM): > 10 µM | IC50 (second compound 10 µM): > 10 µM
Structure (SMILES): CC1COCCN1c1cc(C2(S(C)(=N)=O)CC2)nc(-c2ccnc3[nH]ccc23)n1 (stereo not given) + Cc1ccccc1N=Nc1ccc(NC(=O)c2ccnn2C)c(C)c1
viability, T/C [1]: 108% | viability, T/C [2]: 101% | viability, T/C [3]: 97% | viability, T/C [4]: 99.5% | viability, T/C [5]: 94.8% | viability, T/C [6]: 67.6% | viability, T/C [7]: 100% | viability, T/C [8]: 92.7% | viability, T/C [9]: 105% | viability, T/C [10]: 98% | viability, T/C [11]: 95% | viability, T/C [12]: 64.1% | viability, T/C [13]: 99.2% | viability, T/C [14]: 92.9% | viability, T/C [15]: 93.7% | viability, T/C [16]: 96.6% | viability, T/C [17]: 82.1% | viability, T/C [18]: 67.4% | viability, T/C [19]: 81.9% | viability, T/C [20]: 88.5% | viability, T/C [21]: 107% | viability, T/C [22]: 87.5% | viability, T/C [23]: 68.6% | viability, T/C [24]: 56.1% | viability, T/C [25]: 91.4% | viability, T/C [26]: 77.2% | viability, T/C [27]: 95.4% | viability, T/C [28]: 91.9% | viability, T/C [29]: 79.7% | viability, T/C [30]: 65.2%

IC50 (second compound 0.1 µM): > 3 µM | IC50 (second compound 0.316 µM): > 3 µM | IC50 (second compound 1 µM): > 3 µM | IC50 (second compound 3.16 µM): > 3 µM | IC50 (second compound 10 µM): > 3 µM
Structure (SMILES): CCN(c1cc(-c2ccc(CN3CCOCC3)cc2)cc(C(=O)NCc2c(C)cc(C)[nH]c2=O)c1C)C1CCOCC1 + Cc1ccccc1N=Nc1ccc(NC(=O)c2ccnn2C)c(C)c1
viability, T/C [31]: 97.8% | viability, T/C [32]: 104% | viability, T/C [33]: 104% | viability, T/C [34]: 107% | viability, T/C (second compound 0.1 µM, first compound 0.949 µM): 112% | viability, T/C (second compound 0.1 µM, first compound 3 µM): 118% | viability, T/C [35]: 94.3% | viability, T/C [36]: 106% | viability, T/C [37]: 95% | viability, T/C [38]: 100% | viability, T/C (second compound 0.316 µM, first compound 0.949 µM): 102% | viability, T/C (second compound 0.316 µM, first compound 3 µM): 106% | viability, T/C [39]: 97.7% | viability, T/C [40]: 93.2% | viability, T/C [41]: 115% | viability, T/C [42]: 92% | viability, T/C (second compound 1 µM, first compound 0.949 µM): 97.3% | viability, T/C (second compound 1 µM, first compound 3 µM): 99.8% | viability, T/C [43]: 95.9% | viability, T/C [44]: 99.9% | viability, T/C [45]: 102% | viability, T/C [46]: 94.2% | viability, T/C (second compound 3.16 µM, first compound 0.949 µM): 87.1% | viability, T/C (second compound 3.16 µM, first compound 3 µM): 101% | viability, T/C [47]: 81.9% | viability, T/C [48]: 86.1% | viability, T/C [49]: 96.4% | viability, T/C [50]: 86.1% | viability, T/C (second compound 10 µM, first compound 0.949 µM): 82.2% | viability, T/C (second compound 10 µM, first compound 3 µM): 98.5%

IC50 (second compound 0.1 µM): > 0.1 µM | IC50 (second compound 0.316 µM): > 0.1 µM | IC50 (second compound 1 µM): > 0.1 µM | IC50 (second compound 3.16 µM): > 0.1 µM | IC50 (second compound 10 µM): > 0.1 µM
Structure (SMILES): Cn1ncnc1C1c2n[nH]c(=O)c3cc(F)cc(c23)NC1c1ccc(F)cc1 (stereo not given) + Cc1ccccc1N=Nc1ccc(NC(=O)c2ccnn2C)c(C)c1
viability, T/C (second compound 0.1 µM, first compound 0.000316 µM): 97.2% | viability, T/C (second compound 0.1 µM, first compound 0.001 µM): 88.6% | viability, T/C (second compound 0.1 µM, first compound 0.00316 µM): 103% | viability, T/C (second compound 0.1 µM, first compound 0.01 µM): 95.2% | viability, T/C [1]: 104% | viability, T/C [2]: 89.7% | viability, T/C (second compound 0.316 µM, first compound 0.000316 µM): 93.8% | viability, T/C (second compound 0.316 µM, first compound 0.001 µM): 98.1% | viability, T/C (second compound 0.316 µM, first compound 0.00316 µM): 92.6% | viability, T/C (second compound 0.316 µM, first compound 0.01 µM): 94.3% | viability, T/C [7]: 85.5% | viability, T/C [8]: 88.1% | viability, T/C (second compound 1 µM, first compound 0.000316 µM): 93.5% | viability, T/C (second compound 1 µM, first compound 0.001 µM): 89.4% | viability, T/C (second compound 1 µM, first compound 0.00316 µM): 83.3% | viability, T/C (second compound 1 µM, first compound 0.01 µM): 79.6% | viability, T/C [13]: 95.9% | viability, T/C [14]: 83.1% | viability, T/C (second compound 3.16 µM, first compound 0.000316 µM): 84.9% | viability, T/C (second compound 3.16 µM, first compound 0.001 µM): 79.9% | viability, T/C (second compound 3.16 µM, first compound 0.00316 µM): 88% | viability, T/C (second compound 3.16 µM, first compound 0.01 µM): 78.3% | viability, T/C [19]: 79.7% | viability, T/C [20]: 75.9% | viability, T/C (second compound 10 µM, first compound 0.000316 µM): 84.2% | viability, T/C (second compound 10 µM, first compound 0.001 µM): 85.2% | viability, T/C (second compound 10 µM, first compound 0.00316 µM): 77.9% | viability, T/C (second compound 10 µM, first compound 0.01 µM): 85.9% | viability, T/C [25]: 79.4% | viability, T/C [26]: 79.5%

IC50 (second compound 0.1 µM): > 0.3 µM | IC50 (second compound 0.316 µM): > 0.3 µM | IC50 (second compound 1 µM): > 0.3 µM | IC50 (second compound 3.16 µM): > 0.3 µM | IC50 (second compound 10 µM): > 0.3 µM
Structure (SMILES): Nc1ncn(C2CC(O)C(CO)S2)c(=O)n1 (stereo not given) + Cc1ccccc1N=Nc1ccc(NC(=O)c2ccnn2C)c(C)c1
viability, T/C (second compound 0.1 µM, first compound 0.000949 µM): 103% | viability, T/C (second compound 0.1 µM, first compound 0.003 µM): 105% | viability, T/C [31]: 94.5% | viability, T/C [32]: 91.5% | viability, T/C [33]: 94.8% | viability, T/C [34]: 97.2% | viability, T/C (second compound 0.316 µM, first compound 0.000949 µM): 102% | viability, T/C (second compound 0.316 µM, first compound 0.003 µM): 93.9% | viability, T/C [35]: 92.7% | viability, T/C [36]: 93.9% | viability, T/C [37]: 101% | viability, T/C [38]: 111% | viability, T/C (second compound 1 µM, first compound 0.000949 µM): 99.3% | viability, T/C (second compound 1 µM, first compound 0.003 µM): 89.3% | viability, T/C [39]: 80.5% | viability, T/C [40]: 98.7% | viability, T/C [41]: 88% | viability, T/C [42]: 82.5% | viability, T/C (second compound 3.16 µM, first compound 0.000949 µM): 82.5% | viability, T/C (second compound 3.16 µM, first compound 0.003 µM): 85.7% | viability, T/C [43]: 86.6% | viability, T/C [44]: 76.1% | viability, T/C [45]: 78.6% | viability, T/C [46]: 103% | viability, T/C (second compound 10 µM, first compound 0.000949 µM): 87% | viability, T/C (second compound 10 µM, first compound 0.003 µM): 86.8% | viability, T/C [47]: 99% | viability, T/C [48]: 77.4% | viability, T/C [49]: 85% | viability, T/C [50]: 96.9%
